Assay results: patent US20060173183A1, “Multicyclic bis-amide MMP inhibitors” (Alantos Pharmaceuticals, Inc.,, priority 2004, published 2006)

molecular target: MMP-13 (Homo sapiens, UniProt P45452); assay: Assay for determining MMP-13 inhibition (fluorogenic substrate); format: biochemical; conditions: Table 1, Summary of MMP-13 Activity for Compounds of Formula I; bounds only
Method: The MMP-13 inhibiting activity of the multicyclic bis-amide MMP-13 inhibiting compounds of the present invention may be measured using any suitable assay known in the art. A standard in vitro assay for MMP-13 inhibiting activity is described in Example 3000.
Assay for Determining MMP-13 Inhibition
The typical assay for MMP-13 activity is carried out in assay buffer comprised of 50 mM Tris, pH 7.5, 150 mM NaCl, 5 mM CaCl2 and 0.05% Brij-35. Different concentrations of tested compounds are prepared in assay buffer in 50 μL aliquots. 10 μL of 40 nM stock solution of MMP-13 enzyme is added to the compound solution. The mixture of enzyme and compound in assay buffer is thoroughly mixed and incubated for 20 minutes at room temperature. Upon the completion of incubation, the assay is started by addition of 40 μL of 12.5 μM stock solution of MMP-13 fluorogenic substrate (Calbiochem Cat. No. 444235). The time-dependent increase in fluorescence is measured at the 325 nm excitation and 393 nm emission by automatic plate multireader. The IC50 values are calculated from the initial reaction rates. Selectivity assays were run in a similar manner using MMP-1, MMP-14 and TACE.

COc1cccc(CNC(=O)c2cc(C(=O)N[C@H]3CCc4cc(-c5nnn[nH]5)ccc43)ncn2)c1 [Ex. 2308] and Cc1cc(CNC(=O)c2cc(C(=O)NC3CCc4cc(-c5nnn[nH]5)ccc43)ncn2)ccc1F (stereo not shown) [Ex. 1] cannot be ordered by IC50: greater than 5 nM for the first, greater than 5 nM for the second.

Cc1cc(CNC(=O)c2cc(C(=O)N[C@H]3CCc4c3ccc(C(=O)O)c4C)ncn2)ccc1F [Ex. 2522] and COc1cc(CNC(=O)c2cc(C(=O)N[C@H]3CCc4c3ccc(C(=O)O)c4C)ncn2)ccc1F [Ex. 2562] cannot be ordered by IC50: less than 5 nM for the first, less than 5 nM for the second.

Going from COc1cccc(CNC(=O)c2cc(C(=O)N[C@H]3CCc4cc(-c5noc(=O)[nH]5)ccc43)ncn2)c1 [Ex. 2407] to Cc1cc(CNC(=O)c2cc(C(=O)N[C@H]3CCc4cc(-c5nnn[nH]5)ccc43)ncn2)ccc1F [Ex. 2303], the IC50 rises from less than 5 nM to greater than 5 nM.

Going from Cc1cc(CNC(=O)c2cc(C(=O)N[C@H]3CCc4cc(C(=O)O)ccc43)nc(N)n2)ccc1F [Ex. 2702] to Cc1cc(CNC(=O)c2cc(C(=O)NC3CCCc4cc(-c5nnn[nH]5)ccc43)ncn2)ccc1F (stereo not shown) [Ex. 2301], the IC50 rises from less than 5 nM to greater than 5 nM. The first is the more potent here.

Cc1c(C(=O)O)ccc2c1CC[C@@H]2NC(=O)c1cc(C(=O)NCc2ccc3c(c2)CN(c2c(N)c(=O)c2=O)CC3)ncn1 [Ex. 2539] and Cc1c(-c2nnn[nH]2)ccc2c1CC[C@@H]2NC(=O)c1cc(C(=O)NCc2ccc3c(c2)CN(c2c(N)c(=O)c2=O)CC3)ncn1 [Ex. 2328] cannot be ordered by IC50: less than 5 nM for the first, less than 5 nM for the second.
